Assay results taken from the CheMixHub viscosity set.

Assay: xn = mol fraction of the nth substance listed

CCCCCCC(C)O (stereo not drawn) + Clc1ccccc1
viscosity [mPa·s], 101 kPa
Conditions | 298.15 K | 303.15 K
x2 = 0.0637 | 5.573 | 4.507
x2 = 0.1236 | 4.736 | 3.906
x2 = 0.1894 | 3.906 | 3.291
x2 = 0.2474 | 3.319 | 2.818
x2 = 0.3131 | 2.772 | 2.369
x2 = 0.374 | 2.378 | 1.981
x2 = 0.4525 | 1.947 | 1.641
x2 = 0.5014 | 1.737 | 1.467
x2 = 0.5867 | 1.452 | 1.238
x2 = 0.6813 | 1.203 | 1.08
x2 = 0.7429 | 1.085 | 1
x2 = 0.8098 | 0.968 | 0.929
x2 = 0.8776 | 0.872 | 0.867
x2 = 0.9446 | 0.803 | 0.786

C[N+](C)(CCO)CCO.[Cl-] + NC(N)=O
100 kPa, x1 = 0.5
Conditions | viscosity [mPa·s]
293.15 K | 3865
298.15 K | 2440
303.15 K | 1596
308.15 K | 1065
313.15 K | 724
318.15 K | 514
323.15 K | 368

CC(=O)[O-].C[N+](C)(C)CCO + O
Conditions | viscosity [mPa·s]
298 K, 101.33 kPa, x2 = 0.8 | 30.5

CC(O)CCO (stereo not drawn) + O
viscosity [mPa·s]
Conditions | 298.15 K | 303.15 K | 308.15 K | 313.15 K | 318.15 K
101 kPa, x1 = 0.0996 | 3.694 | 3.073 | 2.633 | 2.297 | 2.019
101 kPa, x1 = 0.1982 | 8.539 | 6.787 | 5.587 | 4.737 | 4.034
101 kPa, x1 = 0.2991 | 15.27 | 11.94 | 9.627 | 8.017 | 6.671
101 kPa, x1 = 0.4036 | 23.16 | 18.3 | 14.52 | 11.63 | 9.592
101 kPa, x1 = 0.4489 | 28.48 | 23.28 | 17.57 | 13.92 | 11.4
101 kPa, x1 = 0.6118 | 47.9 | 35.02 | 27.68 | 21.38 | 17.22
101 kPa, x1 = 0.6989 | 56.8 | 42.27 | 33.27 | 25.42 | 20.24
101 kPa, x1 = 0.7986 | 67.85 | 51.92 | 38.78 | 29.8 | 23.4
101 kPa, x1 = 0.8971 | 82.56 | 62.2 | 46.95 | 35.92 | 27.87
101.3 kPa, x2 = 0.045 | – | – | – | – | 28.95
101.3 kPa, x2 = 0.2499 | – | – | – | – | 20.85

CN(C)CCN(C)C + O
viscosity [mPa·s], 100 kPa
Conditions | 293.15 K | 303.15 K | 313.15 K | 323.15 K
x1 = 0.001 | 1.041 | 0.83 | 0.679 | 0.564
x1 = 0.01 | 1.375 | 1.143 | 0.941 | 0.732
x1 = 0.025 | 2.406 | 1.734 | 1.303 | 1.012
x1 = 0.05 | 5.033 | 3.269 | 2.032 | 1.409
x1 = 0.075 | 8.363 | 4.972 | 2.688 | 1.769
x1 = 0.1 | 11.53 | 6.033 | 3.292 | 2.114
x1 = 0.2 | 12.82 | 7.744 | 4.885 | 3.185
x1 = 0.3 | 7.906 | 5.945 | 4.23 | 3.011
x1 = 0.399 | 3.497 | 2.56 | 1.9 | 1.45
x1 = 0.5 | 1.887 | 1.456 | 1.117 | 0.904
x1 = 0.601 | 1.344 | 1.064 | 0.853 | 0.69
x1 = 0.7 | 1.066 | 0.881 | 0.724 | 0.585
x1 = 0.8 | 0.859 | 0.733 | 0.625 | 0.52
x1 = 0.9 | 0.715 | 0.63 | 0.554 | 0.473

COCCn1cc[n+](C)c1.C[C@@H](O)[C@H](N)C(=O)[O-] + O
100 kPa, x2 = 0.6192
Conditions | viscosity [mPa·s]
298.15 K | 766.5
303.15 K | 499.5

C[N+](C)(C)CCO.NCCS(=O)(=O)[O-] + O
viscosity [mPa·s], 100 kPa
Conditions | x1 = 3.04e-05 | x1 = 5.1e-05 | x1 = 7.04e-05 | x1 = 9.62e-05 | x1 = 0.0001978 | x1 = 0.0004282 | x1 = 0.0006357 | x1 = 0.0009005 | x1 = 0.001375 | x1 = 0.001632
293.15 K | 1.014 | 1.017 | 1.019 | 1.022 | 1.028 | 1.036 | 1.041 | 1.046 | 1.052 | 1.054
298.15 K | 0.904 | 0.907 | 0.91 | 0.913 | 0.922 | 0.932 | 0.939 | 0.946 | 0.954 | 0.958
303.15 K | 0.811 | 0.814 | 0.817 | 0.82 | 0.828 | 0.839 | 0.846 | 0.853 | 0.861 | 0.863
308.15 K | 0.737 | 0.742 | 0.745 | 0.749 | 0.76 | 0.771 | 0.776 | 0.781 | 0.786 | 0.789
313.15 K | 0.675 | 0.68 | 0.684 | 0.688 | 0.699 | 0.709 | 0.715 | 0.72 | 0.723 | 0.724

Cc1cc[n+](CCCO)cc1.[Cl-] + O
viscosity [mPa·s], 100 kPa
Conditions | x1 = 0.001799 | x1 = 0.00269 | x1 = 0.003585 | x1 = 0.005375 | x1 = 0.007144 | x1 = 0.008904
293.15 K | 1.067 | 1.092 | 1.116 | 1.161 | 1.204 | 1.244
298.15 K | 0.942 | 0.963 | 0.984 | 1.022 | 1.059 | 1.094
303.15 K | 0.84 | 0.859 | 0.876 | 0.911 | 0.943 | 0.974
308.15 K | 0.756 | 0.772 | 0.787 | 0.818 | 0.847 | 0.875
313.15 K | 0.685 | 0.699 | 0.713 | 0.741 | 0.767 | 0.792

Cl.NNC(N)=O + O
viscosity [mPa·s], 101 kPa
Conditions | 293.15 K | 298.15 K | 303.15 K | 308.15 K | 313.15 K | 318.15 K
x1 = 0.000452 | 1.008 | 0.8953 | 0.8016 | 0.7228 | – | 0.6
x1 = 0.000904 | 1.014 | 0.9003 | 0.8058 | 0.7263 | 0.6589 | 0.6026
x1 = 0.00135 | – | 0.9052 | 0.81 | 0.7299 | 0.6619 | 0.6051
x1 = 0.001798 | – | 0.9101 | 0.8142 | – | – | 0.6077
x1 = 0.002249 | – | 0.915 | 0.8183 | 0.737 | 0.6679 | 0.6102
x1 = 0.00269 | 1.037 | 0.9199 | 0.8224 | 0.7404 | 0.6708 | 0.6127
x1 = 0.003585 | 1.049 | 0.9296 | 0.8306 | 0.7475 | 0.6767 | 0.6176
x1 = 0.004482 | 1.06 | 0.9395 | 0.8389 | 0.7543 | 0.6826 | 0.6226
x1 = 0.005372 | 1.072 | 0.9492 | 0.8472 | 0.7612 | 0.6884 | 0.6275
x1 = 0.006264 | 1.083 | 0.959 | 0.8554 | 0.7682 | 0.6944 | 0.6324
x1 = 0.007149 | 1.095 | 0.9687 | 0.8637 | 0.775 | 0.7001 | 0.6373

[K+].[K+].[O]=[Cr](=[O])([O-])[O][Cr](=[O])(=[O])[O-] + O
viscosity [mPa·s], 101 kPa
Conditions | x1 = 0.001 | x1 = 0.003 | x1 = 0.0068 | x1 = 0.015
298.15 K | 0.89 | 0.9 | 0.91 | –
312.95 K | 0.66 | 0.67 | 0.68 | 0.73

c1c[nH]cn1 + O
viscosity [mPa·s], 100 kPa
Conditions | x1 = 0.0286 | x1 = 0.0621 | x1 = 0.102 | x1 = 0.15 | x1 = 0.209
298.15 K | 1.058 | 1.242 | 1.47 | 1.737 | 2.14
303.15 K | 0.944 | 1.103 | 1.301 | 1.541 | 1.881
313.15 K | 0.771 | 0.892 | 1.043 | 1.261 | 1.543
323.15 K | 0.647 | 0.742 | 0.862 | 1.034 | 1.254
